# According to patent publication US20050130978A1, “Novel crystal of quinoxalinedione derivative anhydride” (priority 2002, published 2005):
# Experiments:
# [1] = Storage stability of the bulk; format: physicochemical; settings: should be refrigerated to ensure stability
# [2] = cited from earlier work
# [3] = system: cerebral infarction; settings: focal cerebral ischemia model; Non-Patent References 1 and 2; cited from earlier work
# [4] = Hygroscopicity test (time course weight changes under controlled relative humidity at 25° C.); format: physicochemical; design: Time course weight changes: unit not given here; settings: for Hygroscopicity: ˜0% to 93% RH, up to 7 days
# Experimental: About 1 g each of the compound (I) and the compound (II) of anhydride compound A were weighed accurately in weighing bottles (seven) of known weight, then stored under the following conditions at 25° C., and time course weight changes were measured.
# RH herein means relative humidity.
# [5] = system: audiogenic seizure; settings: DBA/2 mouse; tautomer, salt, hydrate or solvate; Patent Reference 1; cited from earlier work
# [6] = system: kainic acid neurotoxicity; settings: tautomer, salt, hydrate or solvate; Patent Reference 1; cited from earlier work
# [7] = system: AMPA receptor; settings: tautomer, salt, hydrate or solvate; Patent Reference 1; cited from earlier work
# [8] = ˜0% RH (silica gel), 25° C., Day 1
# [9] = ˜0% RH (silica gel), 25° C., Day 2
# [10] = ˜0% RH (silica gel), 25° C., Day 4
# [11] = ˜0% RH (silica gel), 25° C., Day 7
structure (smiles),measurement,setting,value
"O=C(O)Cn1c(=O)c(=O)[nH]c2cc([N+](=O)[O-])c(-n3ccnc3)cc21 [1 hydrate of the compound A, [7-(1H-imidazol-1-yl)-6-nitro-2,3-dioxo-3,4-dihydroquinoxalin-1(2H)-yl]acetic acid]",Storage stability (impurities),[1],may increase impurities depending on storage condition
same,Water-solubility,[2]; Non-Patent References 1 and 2,high water-solubility
same,Reducing effect on the volume of cerebral infarction,[3],excellent reducing effect
"O=C(O)Cn1c(=O)c(=O)[nH]c2cc([N+](=O)[O-])c(-n3ccnc3)cc21 [compound (I), [7-(1H-imidazol-1-yl)-6-nitro-2,3-dioxo-3,4-dihydroquinoxalin-1(2H)-yl]acetic acid]",Stability against humidity,[4],excellent stability against humidity
same,Time course weight changes,"[4]; 33% RH, 25° C., Day 1",0.09
same,Time course weight changes,"[4]; 33% RH, 25° C., Day 2",0.06
same,Time course weight changes,"[4]; 33% RH, 25° C., Day 4",0.10
same,Time course weight changes,"[4]; 33% RH, 25° C., Day 7",0.08
same,Time course weight changes,"[4]; 51% RH, 25° C., Day 1",0.03
same,Time course weight changes,"[4]; 51% RH, 25° C., Day 2",0.04
same,Time course weight changes,"[4]; 51% RH, 25° C., Day 4",0.10
same,Time course weight changes,"[4]; 51% RH, 25° C., Day 7",0.09
same,Time course weight changes,"[4]; 63.5% RH, 25° C., Day 1",0.03
same,Time course weight changes,"[4]; 63.5% RH, 25° C., Day 2",0.06
same,Time course weight changes,"[4]; 63.5% RH, 25° C., Day 4",0.10
same,Time course weight changes,"[4]; 63.5% RH, 25° C., Day 7",0.11
same,Time course weight changes,"[4]; 75% RH, 25° C., Day 1",0.04
same,Time course weight changes,"[4]; 75% RH, 25° C., Day 2",0.07
same,Time course weight changes,"[4]; 75% RH, 25° C., Day 4",0.13
same,Time course weight changes,"[4]; 75% RH, 25° C., Day 7",0.10
same,Time course weight changes,"[4]; 84% RH, 25° C., Day 1",0.05
same,Time course weight changes,"[4]; 84% RH, 25° C., Day 2",0.09
same,Time course weight changes,"[4]; 84% RH, 25° C., Day 4",0.11
same,Time course weight changes,"[4]; 84% RH, 25° C., Day 7",0.13
same,Time course weight changes,"[4]; 93% RH, 25° C., Day 1",0.09
same,Time course weight changes,"[4]; 93% RH, 25° C., Day 2",0.10
same,Time course weight changes,"[4]; 93% RH, 25° C., Day 4",0.15
same,Time course weight changes,"[4]; 93% RH, 25° C., Day 7",0.13
same,Time course weight changes,[4]; [8],0.03
same,Time course weight changes,[4]; [9],−0.01
same,Time course weight changes,[4]; [10],0.02
same,Time course weight changes,[4]; [11],0.01
same,Hygroscopicity,[4]; 25° C.,stable under any relative humidity conditions almost without showing hygroscopicity
"O=C(O)Cn1c(=O)c(=O)[nH]c2cc([N+](=O)[O-])c(-n3ccnc3)cc21 [compound (II), [7-(1H-imidazol-1-yl)-6-nitro-2,3-dioxo-3,4-dihydroquinoxalin-1(2H)-yl]acetic acid]",Stability against humidity,[4],unstable against humidity
same,Time course weight changes,"[4]; 33% RH, 25° C., Day 1",5.26
same,Time course weight changes,"[4]; 33% RH, 25° C., Day 2",5.29
same,Time course weight changes,"[4]; 33% RH, 25° C., Day 4",5.32
same,Time course weight changes,"[4]; 33% RH, 25° C., Day 7",5.33
same,Time course weight changes,"[4]; 51% RH, 25° C., Day 1",5.39
same,Time course weight changes,"[4]; 51% RH, 25° C., Day 2",5.39
same,Time course weight changes,"[4]; 51% RH, 25° C., Day 4",5.40
same,Time course weight changes,"[4]; 51% RH, 25° C., Day 7",5.38
same,Time course weight changes,"[4]; 63.5% RH, 25° C., Day 1",5.47
same,Time course weight changes,"[4]; 63.5% RH, 25° C., Day 2",5.47
same,Time course weight changes,"[4]; 63.5% RH, 25° C., Day 4",5.49
same,Time course weight changes,"[4]; 63.5% RH, 25° C., Day 7",5.49
same,Time course weight changes,"[4]; 75% RH, 25° C., Day 1",5.47
same,Time course weight changes,"[4]; 75% RH, 25° C., Day 2",5.47
same,Time course weight changes,"[4]; 75% RH, 25° C., Day 4",5.51
same,Time course weight changes,"[4]; 75% RH, 25° C., Day 7",5.46
same,Time course weight changes,"[4]; 84% RH, 25° C., Day 1",5.51
same,Time course weight changes,"[4]; 84% RH, 25° C., Day 2",5.52
same,Time course weight changes,"[4]; 84% RH, 25° C., Day 4",5.52
same,Time course weight changes,"[4]; 84% RH, 25° C., Day 7",5.51
same,Time course weight changes,"[4]; 93% RH, 25° C., Day 1",5.52
same,Time course weight changes,"[4]; 93% RH, 25° C., Day 2",5.49
same,Time course weight changes,"[4]; 93% RH, 25° C., Day 4",5.54
same,Time course weight changes,"[4]; 93% RH, 25° C., Day 7",5.51
same,Absorbed water,"[4]; after one day, at least 33% RH or more, 25° C.",1 mol water per mol compound
same,Time course weight changes,[4]; [8],0.09
same,Time course weight changes,[4]; [9],0.08
same,Time course weight changes,[4]; [10],0.07
same,Time course weight changes,[4]; [11],0.04
same,Hygroscopicity,[4]; 25° C.,strong hygroscopicity
"O=C(O)Cn1c(=O)c(=O)[nH]c2cc([N+](=O)[O-])c(-n3ccnc3)cc21 [compound A, [7-(1H-imidazol-1-yl)-6-nitro-2,3-dioxo-3,4-dihydroquinoxalin-1(2H)-yl]acetic acid]",Anticonvulsant effect for audiogenic seizure,[5],potent activities
same,Solubility,[2]; Patent Reference 1,excellent solubility
same,Inhibitory action against kainic acid neurotoxicity,[6],potent activities
same,Affinity for the AMPA receptor,[7],high affinity
